Results reported in publication PMC10762078, “Role of UPF1-LIN28A interaction during early differentiation of pluripotent stem cells” (Nature Communications, 2024).
Ends that are not written are not given here.

How the values were obtained:
His-LIN28A = target: T1, His-LIN28A (Homo sapiens, UniProt Q9H9Z2); experiment: SPR analyte-ligand binding screening of eight peptides (P1-P8); conditions: SPR screening at 15 μM, 3 min association, 6 min dissociation
T1 construct: purchased LS-bio LS-G637
T1 sequence (Q9H9Z2 1-209): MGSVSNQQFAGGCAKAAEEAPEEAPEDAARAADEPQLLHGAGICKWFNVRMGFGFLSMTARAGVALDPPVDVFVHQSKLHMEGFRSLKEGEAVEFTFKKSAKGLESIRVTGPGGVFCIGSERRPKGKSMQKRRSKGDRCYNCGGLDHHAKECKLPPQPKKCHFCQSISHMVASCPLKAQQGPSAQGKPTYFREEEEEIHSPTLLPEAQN
Description: For ligand immobilisation, the nitrilotriacetic acid (NTA) surface gold sensor chip (icluebio) was activated with 5 mM NiCl2 (Xantec) at a flow rate of 30 μL/min, following equalisation with 1× HBS-T buffer. His-LIN28A (LS-bio, LS-G637) was used as a ligand protein and was applied to a sensor chip at a flow rate of 10 μL/min for 40 min after dilution in 1× HEPES-buffered saline (HBS-T) buffer at a 1/20 ratio. Approximately 1000 resonance units (RU) were bonded to the sensor chip after ligand immobilisation. RU was measured using iMSPR-ProX (icluebio). An indigenous NTA sensor chip was used as a reference channel.
Analyte-ligand binding screening was performed by tethering the ligand and reference channels in the connected mode. […] After equalisation with 1× HBS-T buffer, the sensor chip was treated with each peptide for 3 min and then for 6 min with 1× HBS-T buffer for peptide dissociation.

[1] = system: human fetal neural stem cells (VM-NSCs or CTX-NSCs); experiment: H2O2-stressed human fetal neural stem cells: survival and neuronal markers (peer review file); format: cell-based; conditions: compared with CPP-P1
Excerpt: 4. In addition to identifying the differentiation markers, what are the effects of LIN28A-UPF1 interactions on the functional differentiation phenotypes?
We observed that the levels of stem cell markers, POU5F1 (OCT4) and NANOG, were reduced when UPF1 and LIN28A interaction was disrupted by the […]
To determine the effects of CPP-P8 during […]
split every 4~6-days. After CPP-P8 treatment, the cell phenotypes treated with CPP-P8 looked more like the spontaneous differentiated cells than the ones treated with CPP-P1 and CPP-P2 (Fig. 6c and Supplementary Fig. 6b in the revised manuscript).
The final experiment to determine the functional phenotypes used treated human fetal neural stem cells (ventral midbrain (VM)-NSCs or cortex (CTX)-NSCs), which was stressed by H2O2, with the peptides (CPP-P1 or P8), and differentiation to neurons was initiated. The immunofluorescence results […]
neuron markers, Tyrosine hydroxylase (TH) and TUJ1 compared with CPP-P1 treatment. We are preparing another manuscript to show the effects of CPP-P8 on neuronal differentiation, we would like […]
We hope our additional experiments have addressed the reviewer’s concern.
Original Manuscript Revised Manuscript
Fig. 1e Supplementary Fig. 6b
(1 picture or pasted object on this page, not shown here)

With KKKWCRKKKSSADEKRYRALKRTAERELLMNA [P8] the “binding affinity vs others” value (His-LIN28A) was “significantly”, the “cell survival” value ([1]; DAPI staining) was “increased cell survival (DAPI staining)” and the “dopaminergic neuron markers TH and TUJ1” value [1] was “upregulated dopaminergic”.
